Laboratory results: EP1285920A1, “C10 Ester sustituted taxanes as antitumor agents” (Florida State University Research Foundation, Inc., priority 2001, dated 2003)
Like-named read-outs stand apart in the source and are kept apart here.

Tests used:
A2780 ovarian carcinoma = conditions: for Mean Score: tumor scoring system
Protocol: Dosing was initiated on Day 1. […] Taxotere was given i.v. on a qd x 1 schedule at a dose of 70 mg/kg. […] The study was terminated on Day 60. Treatment groups are detailed in Table 7.

[1] = tested on: Panc-1 pancreatic carcinoma; conditions: for Mean Score: tumor scoring system
Protocol: The dosing volume was 0.3 ml per 20 g mouse.
Female NCr-nude mice were implanted subcutaneously with 1 mm^3 Panc-1 pancreatic carcinoma fragments in the flank and sorted into treatment groups of six mice each. […] Dosing was initiated on Day 1. The antitumor compounds were given i.v. at an estimated maximum tolerated dose (MTD) appropriate for each agent on a qd x 1 schedule (single administration of compound). […] The vehicle was administered i.v. to control mice in Group 1 on the qd x 1 schedule.
The mean days of survival is the number of days after which a neoplasm reached a size of 1.5 g and the animal was euthanized. A complete response is obtained if the tumor shrinks to a size smaller than its size on Day 1 of the study.

SK-MES carcinoma = assay: In vivo evaluation against SK-MES human lung carcinoma xenograft (i.v., Example 11); conditions: SK-MES
Protocol: Antitumor compounds were formulated for an i.v. dosing regime prepared in the following vehicle: 10% ethanol, 10% Cremophor and 80% isotonic saline.
Vehicle control animals were dosed twice intravenously with half the total volume being given separated by one hour. The study was terminated on Day 60.
A complete response is obtained if the tumor is not palpable at the end of the study.
A tumor scoring system was designed to provide a more quantitative ranking of efficacy (therapeutic potential) among the antitumor agents evaluated against the different human solid tumor xenografts. Each mouse in a study was given a score of from 1 to 10 at the end of the study. The scores can be summarized as follows:
The individual score for each mouse was averaged into a mean score for each treatment group. […]

HCT116 carcinoma = tested on: HCT116 carcinoma
In short: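 Mice bearing HCT116 tumours received a single i.v. maximum tolerated dose per compound, formulated in 5% ethanol, 5% Cremophor, 90% isotonic saline. Study ended on Day 60; complete response meant no palpable tumour at study end.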

[2] = number of mice, Taxol i.p. qd x 5, 15 mg/kg daily, 5 mice
[3] = number of mice, i.v. qd x 1 at estimated MTD (Taxol 24 mg/kg, Taxotere 70 mg/kg, 0983 72.6 mg/kg), 5 mice/group (Taxotere 6), Day 60
[4] = number of mice, Taxol 15 mg/kg i.p. qd x 5, 6 mice, Day 63
[5] = number of mice, i.v. qd x 1, mg/kg: Taxol 24, 0854 46.6, 1011 107.6, 6 mice/group, Day 63
[6] = HCT116, Taxol i.p. 18 mg/kg qd x 5 (Group 3)
[7] = number of 5 mice, Taxol 18 mg/kg i.p. qd x 5

## CC(=O)O[C@H]1C(=O)[C@@]2(C)[C@H]([C@H](OC(=O)c3ccccc3)[C@]3(O)C[C@H](OC(=O)[C@H](O)[C@@H](NC(=O)c4ccccc4)c4ccccc4)C(C)=C1C3(C)C)[C@]1(OC(C)=O)CO[C@@H]1C[C@@H]2O [Taxol, paclitaxel, reference compound]
A2780 ovarian carcinoma; A2780, Taxol i.p. 15 mg/kg qd x 5 (Group 3)
  toxicity: highly toxic
A2780 ovarian carcinoma; A2780, Taxol i.p. 15 mg/kg qd x 5 (Group 3), five mice
  mice succumbed to drug-related side effects: four
A2780 ovarian carcinoma; A2780, i.v. qd x 1
  antitumor activity: moderately efficacious
  survival extension compared to Group 1 controls: 87%
A2780 ovarian carcinoma; A2780, i.v. qd x 1 (compounds estimated MTD; Taxol 24 mg/kg split; Taxotere 70 mg/kg), days until tumor 2.0 g, ended Day 60
  MDS: 21.9 days
A2780 ovarian carcinoma; A2780, i.v. qd x 1, five mice per group
  Stable Disease: One
A2780 ovarian carcinoma; mean days of survival until neoplasm reached 2.0 g, i.v. qd x 1 at estimated MTD (Taxol 24 mg/kg, Taxotere 70 mg/kg, 0983 72.6 mg/kg), 5 mice/group (Taxotere 6), terminated Day 60
  MDS (n): 21.9 ± 5.5 (5) days
A2780 ovarian carcinoma; [2]
  Complete Response: 0
  Partial Respons: 0
  Stable Disease: 0
  Survivors: 0
  Toxic Deaths: 4
A2780 ovarian carcinoma; number of mice, i.v. qd x 1 at estimated MTD (Taxol 24 mg/kg, Taxotere 70 mg/kg, 0983 72.6 mg/kg), 5 mice/group (Taxotere 6)
  Toxic Deaths: 0
A2780 ovarian carcinoma; [3]
  Complete Response: 0
  Partial Respons: 0
  Stable Disease: 0
  Survivors: 1
A2780 ovarian carcinoma; Taxol i.p. qd x 5, 15 mg/kg daily, 5 mice
  Mean Score: 0.6 ± 0.6
A2780 ovarian carcinoma; i.v. qd x 1 at estimated MTD (Taxol 24 mg/kg, Taxotere 70 mg/kg, 0983 72.6 mg/kg), 5 mice/group (Taxotere 6)
  Mean Score: 1.8 ± 0.4
[1]; Panc-1 (Example 18), Taxol 24 mg/kg i.v. qd x 1, four mice, tumor 1.5 g, ended Day 63
  MDS: 34.7 days
[1]; Panc-1 (Example 18), Taxol i.p. 15 mg/kg qd x 5 (Group 3), six animals
  Toxic Deaths: four
[1]; Panc-1 (Example 18), i.v. qd x 1, Taxol 24 mg/kg split, six mice per group
  Stable Disease: one
[1]; Panc-1 (Example 18), i.v. qd x 1, six mice per group
  toxic deaths / toxic lethalities: One
[1]; mean days of survival until neoplasm reached 1.5 g, i.v. qd x 1, mg/kg: Taxol 24, 0854 46.6, 1011 107.6, 6 mice/group, terminated Day 63
  MDS (n): 34.7 ± 3.4 days
[1]; number of mice, Taxol 15 mg/kg i.p. qd x 5, 6 mice
  Toxic Deaths: 4
[1]; [4]
  Complete Response: 0
  Partial Response: 1
  Stable Disease: 0
  Survivors: 1
[1]; number of mice, i.v. qd x 1, mg/kg: Taxol 24, 0854 46.6, 1011 107.6, 6 mice/group
  Toxic Deaths: 1
[1]; [5]
  Complete Response: 0
  Partial Response: 0
  Stable Disease: 1
  Survivors: 1
[1]; Taxol 15 mg/kg i.p. qd x 5, 6 mice
  Mean Score: 1.2 ± 1.2
[1]; i.v. qd x 1, mg/kg: Taxol 24, 0854 46.6, 1011 107.6, 6 mice/group
  Mean Score: 2.2 ± 0.8
SK-MES carcinoma; Taxol 36 mg/kg i.v.
  survival extension compared to vehicle controls: 30%
SK-MES carcinoma; i.v. MTD in two half doses one hour apart, qd x 1, Taxol 36 mg/kg, 0503 72.1 mg/kg, days until tumor 1.5 g, ended Day 60
  MDS (n): 16 ± 2.0 (6) days
SK-MES carcinoma; i.v. split dose qd x 1, six mice per group
  Toxic Deaths: 0
SK-MES carcinoma; i.v. split dose qd x 1, six mice per group, Day 60
  Survivors: 0
SK-MES carcinoma; i.v. split dose qd x 1, tumor below 1.5 g at termination
  Stable Disease: 0
SK-MES carcinoma; i.v. split dose qd x 1, tumor not palpable at end of study
  Complete Response: 0
SK-MES carcinoma; i.v. split dose qd x 1, tumor smaller than on Day 1
  Partial Response: 0
SK-MES carcinoma; tumor score 1 to 10 per mouse, group mean
  Mean Score: 1.3 ± 0.3
HCT116 carcinoma; HCT116, Taxol 36 mg/kg i.v. qd x 1
  increase in survival compared to control Group 1: 24%
HCT116 carcinoma; [6]
  Partial Response: one
  survival extension compared to Group 1 control mice: 84%
HCT116 carcinoma; HCT116, i.v. qd x 1 (compounds single MTD; Taxol 36 mg/kg split), days until tumor 2.0 g, ended Day 60
  MDS: 27.5 days
HCT116 carcinoma; HCT116, i.v. qd x 1, five mice per group
  Stable Disease: one
HCT116 carcinoma; Taxol 18 mg/kg i.p. qd x 5, 5 mice
  Mean Score: 3.6 ± 1.4
HCT116 carcinoma; i.v. qd x 1 at MTD, 5 mice/group, Day 60, doses as in E3
  Mean Score: 2.2 ± 0.5
HCT116 carcinoma; mean days of survival until tumor reached 2.0 g, i.v. qd x 1 at MTD, 5 mice/group, study ended Day 60, mg/kg: Taxol 36 (split doses), 0503 72.6, 0536 49, 0663 159, 0670 123, 0687 159, 0706 108, 0908 159, 0947 76.9, 0951 72.6, 0983 72.6, 0999 49, 1003 49, 1011 108
  MDS (n): 27.5 ± 1.7 (4) days
HCT116 carcinoma; mouse, in vivo, iv
  tolerability: well-tolerated
HCT116 carcinoma; number of 5 mice, tumor did not reach 2.0 g by end of study, i.v. qd x 1 at MTD, Day 60, doses as in E3
  Stable Disease: 1
HCT116 carcinoma; number of 5 mice, tumor not palpable at end of study, i.v. qd x 1 at MTD, Day 60, doses as in E3
  Complete Response: 0
HCT116 carcinoma; number of 5 mice, tumor smaller than on Day 1, i.v. qd x 1 at MTD, Day 60, doses as in E3
  Partial Response: 0
HCT116 carcinoma; [7]
  Complete Response: 0
  Partial Response: 1
  Stable Disease: 0
  Survivors: 1
  Toxic Deaths: 0
HCT116 carcinoma; number of 5 mice, i.v. qd x 1 at MTD, Day 60, doses as in E3
  Survivors: 1
HCT116 carcinoma; number of 5 mice, i.v. qd x 1 at MTD, Day 60, mg/kg: Taxol 36 (split doses), 0503 72.6, 0536 49, 0663 159, 0670 123, 0687 159, 0706 108, 0908 159, 0947 76.9, 0951 72.6, 0983 72.6, 0999 49, 1003 49, 1011 108
  Toxic Deaths: 0
